In patent US10689430B2, “Insulin receptor partial agonists” (Merck Sharp & Dohme Corp., priority 2016, dated 2020):

Target: T1, human IR(B) (Homo sapiens, UniProt P06213)
T1 construct: expressed in transfected cells; host or cells: CHO cells (membrane preparation)
Test: Insulin receptor binding assay (SPA, 125[I]-insulin competition)
Conditions: cell membranes from CHO cells overexpressing human IR(B)
Method: Cell membranes were prepared in 50 mM Tris buffer, pH 7.8 containing 5 mM MgCl2.

T1 sequence (P06213 28-758 limits assumed): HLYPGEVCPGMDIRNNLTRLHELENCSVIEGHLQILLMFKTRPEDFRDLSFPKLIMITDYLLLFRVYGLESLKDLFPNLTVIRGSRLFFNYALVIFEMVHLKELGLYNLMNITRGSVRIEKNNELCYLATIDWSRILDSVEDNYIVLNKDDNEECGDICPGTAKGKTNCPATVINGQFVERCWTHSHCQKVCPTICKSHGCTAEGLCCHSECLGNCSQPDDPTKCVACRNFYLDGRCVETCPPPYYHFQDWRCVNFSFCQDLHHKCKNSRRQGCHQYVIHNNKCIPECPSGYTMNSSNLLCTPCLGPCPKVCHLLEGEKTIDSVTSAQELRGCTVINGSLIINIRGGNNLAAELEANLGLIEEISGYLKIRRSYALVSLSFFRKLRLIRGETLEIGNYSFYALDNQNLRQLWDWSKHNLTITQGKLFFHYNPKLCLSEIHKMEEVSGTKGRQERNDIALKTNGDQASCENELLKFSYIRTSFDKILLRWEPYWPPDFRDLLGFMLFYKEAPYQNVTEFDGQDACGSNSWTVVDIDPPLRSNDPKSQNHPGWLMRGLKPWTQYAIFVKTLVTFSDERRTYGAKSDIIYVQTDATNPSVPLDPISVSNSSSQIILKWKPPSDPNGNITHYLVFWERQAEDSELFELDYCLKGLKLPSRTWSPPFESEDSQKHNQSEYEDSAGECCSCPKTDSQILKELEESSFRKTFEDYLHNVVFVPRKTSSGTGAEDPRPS
T1 sequence (P06213 763-1382 partner limits assumed): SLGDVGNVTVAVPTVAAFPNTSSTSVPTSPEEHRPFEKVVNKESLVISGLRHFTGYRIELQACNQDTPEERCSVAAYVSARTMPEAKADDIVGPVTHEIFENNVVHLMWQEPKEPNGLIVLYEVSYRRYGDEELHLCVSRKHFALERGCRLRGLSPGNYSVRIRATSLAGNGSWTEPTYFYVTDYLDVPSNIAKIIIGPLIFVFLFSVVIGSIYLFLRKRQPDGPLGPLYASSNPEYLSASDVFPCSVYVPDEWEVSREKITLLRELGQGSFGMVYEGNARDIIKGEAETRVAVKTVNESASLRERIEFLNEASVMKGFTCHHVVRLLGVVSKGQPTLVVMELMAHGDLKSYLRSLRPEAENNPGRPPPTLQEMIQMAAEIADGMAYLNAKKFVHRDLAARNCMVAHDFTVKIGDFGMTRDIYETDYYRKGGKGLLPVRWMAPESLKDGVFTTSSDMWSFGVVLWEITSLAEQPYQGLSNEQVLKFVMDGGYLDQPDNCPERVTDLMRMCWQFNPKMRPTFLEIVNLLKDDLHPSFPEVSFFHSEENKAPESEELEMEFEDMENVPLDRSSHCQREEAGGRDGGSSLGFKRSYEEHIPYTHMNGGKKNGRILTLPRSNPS

Work on “N^6,B29, N^6,B29′-(C3-tartaric acid-C3)insulin human [Dimer 85]” yielded an IC50 of 1.8 nM.
